Source: US20260098058A1, “COMPOUND - DIAGNOSTIC MARKER FOR OVARIAN CANCER, METHOD FOR DETECTING ENZYMATIC ACTIVITY, METHOD FOR DIAGNOSIS OF OVARIAN CANCER, KIT COMPRISING THE COMPOUND, USES OF THE COMPOUND AND METHOD FOR THE TREATMENT OF OVARIAN CANCER” (Urteste S.A., priority 2022, published 2026)
“And” between values parts separate entries of the source, which are not always exact repeats. Equal entries are not always repeated. “Also recorded” adds a separate entry of the source. Starred links: 1 amine or outer side, 2 acyl side, 3 side chain; linkers in the order of their positions; H or OH if unused. Non-standard residues stand in square brackets, D forms with d. No end group written: not given here. Benzoyl(5-NH,2-NO2) = O=C(c1cc(N[*:1])ccc1[N+](=O)[O-])[*:2]; 2Abz = Nc1ccccc1C(=O)O

Columns and labels:
[1] = tested on: urine samples from subjects with ovarian cancer or another neoplastic disease; experiment: Selectivity of substrate cleavage by cancer type (urine samples); assay type: biochemical, human; settings: intestine, kidney, prostate, pancreas, stomach, lung, uterine body and liver cancer samples (FIG. 3)
From the text: Arabic numerals indicate the numbers of given cancer types. The samples tested for each type of cancer were derived from 20 different patients for each of the tested cancers. The results are mean values for given cancer types.
(§1) The activity of the novel compounds according to the invention was studied in a group of 20 subjects diagnosed with ovarian cancer using the representative compound according to the invention. […] The remaining compounds according to the invention are characterized by the analogous mechanism of action. For this purpose, the representative compound according to the invention, ABZ^1-Asp^2-Thr^3-Phe^4-Ile^5-NH2, was dissolved in dimethyl sulfoxide (at a concentration of 0.5 mg/mL) and then […] of the solution was mixed with […] of a buffer (200 mM Tris-HCl, pH 8.0) and […] of urine from a subject suffering from ovarian cancer. The measurement was performed on a 96-well plate designed for measuring absorbance and each sample was analysed in triplicate at the temperature of 37° C. The duration of the measurement was 60 minutes. During the measurement, the wavelength characteristic for the chromophore (ANB-NH2) being released was monitored at the wavelength 405 nm (range 380-430 nm).
Furthermore, the dependence of the cleavage selectivity of the substrate, i.e. the compound according to the invention, on the cancer type being examined, was studied. […]

[2] = tested on: urine samples taken from healthy persons (without a cancer diagnosis); experiment: Absorbance measurement of substrate hydrolysis in urine from healthy subjects; assay type: biochemical, human; settings: for Results of absorbance analysis (rate of hydrolysis of the substrate): 405 nm, 37° C., 60 minutes, pH 8.0, triplicate
[3] = tested on: urine taken from a person diagnosed with ovarian cancer; experiment: RP HPLC analysis of substrate cleavage in urine; assay type: biochemical, human; settings: randomly selected urine sample from a person diagnosed with ovarian cancer (FIG. 1)
[4] = tested on: enzymatic (proteolytic) activity in urine from a subject suffering from ovarian cancer; experiment: Absorbance measurement of substrate hydrolysis in urine from subjects with ovarian cancer; assay type: biochemical, human; settings: for Results of absorbance analysis (rate of hydrolysis of the substrate): 405 nm, 37° C., 60 minutes, pH 8.0, triplicate
Experimental: as §1

[5] = tested on: enzyme(s) in the studied material; experiment: Dependence of substrate hydrolysis on reaction pH; assay type: biochemical; settings: FIG. 4
Experimental: Furthermore, measurements concerning the dependence of the proteolytic activity of the representative compound according to the invention on the reaction pH were performed.

dependence of the hydrolysis level of the substrate on pH [5]: maximum activity at alkaline pH
Substance: ABZ-Asp-Thr-Phe-Ile-ANB-NH2 ([2Abz]DTFI-{Benzoyl(5-NH,2-NO2)-NH2})
cleavage / increase in absorbance with samples of other cancers [1]: is not subject to cleavage
increase in absorbance within the diagnostic range ([2]; 20 urine samples from healthy subjects (Z21 to Z40)): no increase in absorbance; also recorded: does not lead to an increase in absorbance
Results of absorbance analysis (rate of hydrolysis of the substrate) ([2]; urine sample Z21, healthy subject): 0.000000
Results of absorbance analysis (rate of hydrolysis of the substrate) ([2]; urine sample Z22, healthy subject): 0.000000
Results of absorbance analysis (rate of hydrolysis of the substrate) ([2]; urine sample Z23, healthy subject): 0.000000
Results of absorbance analysis (rate of hydrolysis of the substrate) ([2]; urine sample Z24, healthy subject): 0.000000
Results of absorbance analysis (rate of hydrolysis of the substrate) ([2]; urine sample Z25, healthy subject): 0.000000
Results of absorbance analysis (rate of hydrolysis of the substrate) ([2]; urine sample Z26, healthy subject): 0.000000
Results of absorbance analysis (rate of hydrolysis of the substrate) ([2]; urine sample Z27, healthy subject): 0.000000
Results of absorbance analysis (rate of hydrolysis of the substrate) ([2]; urine sample Z28, healthy subject): 0.000000
Results of absorbance analysis (rate of hydrolysis of the substrate) ([2]; urine sample Z29, healthy subject): 0.000000
Results of absorbance analysis (rate of hydrolysis of the substrate) ([2]; urine sample Z30, healthy subject): 0.000000
Results of absorbance analysis (rate of hydrolysis of the substrate) ([2]; urine sample Z31, healthy subject): 0.000000
Results of absorbance analysis (rate of hydrolysis of the substrate) ([2]; urine sample Z32, healthy subject): 0.000000
Results of absorbance analysis (rate of hydrolysis of the substrate) ([2]; urine sample Z33, healthy subject): 0.000000
Results of absorbance analysis (rate of hydrolysis of the substrate) ([2]; urine sample Z34, healthy subject): 0.000000
Results of absorbance analysis (rate of hydrolysis of the substrate) ([2]; urine sample Z35, healthy subject): 0.000000
Results of absorbance analysis (rate of hydrolysis of the substrate) ([2]; urine sample Z36, healthy subject): 0.000000
Results of absorbance analysis (rate of hydrolysis of the substrate) ([2]; urine sample Z37, healthy subject): 0.000000
Results of absorbance analysis (rate of hydrolysis of the substrate) ([2]; urine sample Z38, healthy subject): 0.000000
Results of absorbance analysis (rate of hydrolysis of the substrate) ([2]; urine sample Z39, healthy subject): 0.000000
Results of absorbance analysis (rate of hydrolysis of the substrate) ([2]; urine sample Z40, healthy subject): 0.000000
cleavage products by RP HPLC [3]: cleaves into the peptide fragment ABZ-Asp-Thr-Phe-Ile-OH and the chromophore group of the compound (ANB-NH2)
colour intensity of the solution (absorbance in time) ([4]; all urine samples from persons diagnosed with ovarian cancer (samples 1-20)): increased with time
efficiency of cleavage of the substrate between samples ([4]; samples 3 and 17 compared with samples 1 or 13): less efficiently
Results of absorbance analysis (rate of hydrolysis of the substrate) ([4]; urine sample 1, ovarian cancer): 0.0066 and 0.006 and 0.0065
Results of absorbance analysis (rate of hydrolysis of the substrate) ([4]; urine sample 2, ovarian cancer): 0.052 and 0.042 and 0.051
Results of absorbance analysis (rate of hydrolysis of the substrate) ([4]; urine sample 3, ovarian cancer): 0.0087 and 0.0088 and 0.0086
Results of absorbance analysis (rate of hydrolysis of the substrate) ([4]; urine sample 4, ovarian cancer): 0.0069 and 0.0051 and 0.0067
Results of absorbance analysis (rate of hydrolysis of the substrate) ([4]; urine sample 5, ovarian cancer): 0.044 and 0.038 and 0.042
Results of absorbance analysis (rate of hydrolysis of the substrate) ([4]; urine sample 6, ovarian cancer): 0.037 and 0.022 and 0.028
Results of absorbance analysis (rate of hydrolysis of the substrate) ([4]; urine sample 8, ovarian cancer): 0.014 and 0.022 and 0.015
Results of absorbance analysis (rate of hydrolysis of the substrate) ([4]; urine sample 9, ovarian cancer): 0.0088 and 0.0101 and 0.0092
Results of absorbance analysis (rate of hydrolysis of the substrate) ([4]; urine sample 10, ovarian cancer): 0.009 and 0.0093 and 0.0085
Results of absorbance analysis (rate of hydrolysis of the substrate) ([4]; urine sample 11, ovarian cancer): 0.0123 and 0.0112 and 0.0145
Results of absorbance analysis (rate of hydrolysis of the substrate) ([4]; urine sample 12, ovarian cancer): 0.0216 and 0.021 and 0.0199
Results of absorbance analysis (rate of hydrolysis of the substrate) ([4]; urine sample 13, ovarian cancer): 0.0045 and 0.0052 and 0.0048
Results of absorbance analysis (rate of hydrolysis of the substrate) ([4]; urine sample 14, ovarian cancer): 0.005 and 0.0061 and 0.0058
Results of absorbance analysis (rate of hydrolysis of the substrate) ([4]; urine sample 15, ovarian cancer): 0.0017 and 0.0015 and 0.0021
Results of absorbance analysis (rate of hydrolysis of the substrate) ([4]; urine sample 16, ovarian cancer): 0.0079 and 0.0084 and 0.0072
Results of absorbance analysis (rate of hydrolysis of the substrate) ([4]; urine sample 18, ovarian cancer): 0.0073 and 0.0068 and 0.0075
Results of absorbance analysis (rate of hydrolysis of the substrate) ([4]; urine sample 19, ovarian cancer): 0.055 and 0.051 and 0.048
Results of absorbance analysis (rate of hydrolysis of the substrate) ([4]; urine sample 20, ovarian cancer): 0.0077 and 0.0075 and 0.0081
